# Read-outs that look alike come from different tables or passages of the source.
# Legend:
# [1] = target: T1, GABAB receptors (Rattus norvegicus, UniProt Q9Z0U4); conditions: 2-hydroxysaclofen; cited from earlier work
# T1 construct: microinjection of baclofen (0.1-1 nmol) into the ventral tegmental area; host or cells: ventral tegmental area of living animals (endogenous receptor)
# [2] = tested on: extracellular DA in the NACC; test: Microdialysis: ethanol-induced increases in NACC DA; type: in vivo, rats; conditions: ethanol 1.0 g/kg i.p., approximately 125 minutes following administration
# Experimental: Ethanol at a dose of 1.0 g/kg i.p. was administered to the animals.
# [3] = tested on: Sprague-Dawley rats; test: Gross locomotor activity during microdialysis (infrared motion sensor); conditions: nicotine, regardless of the dose of GVG
# Source text: In parallel to the quantitative estimates of dopamine concentration, the locomotor response of these animals to stimulant administration was simultaneously quantified using an infrared motion sensor. This infrared optical proximity detector monitored movement of the gimbaled arm, an integral component of the freely moving system. The digital output of the detector was interfaced with an IBM personal computer and programmed to count both positive and negative arm deflections. […] Locomotor activity was then expressed as the number of deflections per sample interval.
# [4] = tested on: mesolimbic extracellular dopamine (DA), NAcc; test: Microdialysis Example 15: extracellular dopamine after nicotine; type: in vivo; conditions: nicotine 0.4 mg/kg s.c., saline pretreated animals
# Experimental: (§1) Briefly, two days prior to the microdialysis experiments, siliconized guide cannulae were implanted targeting the NAcc (A=+1.5 mm, L=−1.0 mm, V=−5.6 mm). […] Dialysate samples were assayed for monoamine content by microbore high-pressure liquid chromatography (HPLC) coupled with electrochemical detection. […] Peak effects were analyzed with a one-way ANOVA, and post-hoc Bonferroni t-test of topiramate pretreated groups compared to saline pretreated controls provided ANOVA significance at a critical value of 0.05.
# [5] = tested on: serotonin (5-HT); test: Microdialysis Example 15: extracellular serotonin after nicotine; type: in vivo; conditions: nicotine 0.4 mg/kg s.c., saline pretreated animals
# Experimental: as §1
# [6] = tested on: rats; test: Nicotine-induced conditioned place preference; type: in vivo
# Source text: A total of 8 rats were examined for each treatment pairing. Animals received 4 pairings over an 8 day period, one pairing per day. […] The protocol on days 1 and 2 was repeated 3 additional times.
# The CPP apparatus was made entirely of plexiglass, except for the floor in one of the pairing chambers, which was made of a stainless steel plate with holes (0.5 mm in diameter) spaced 0.5 mm from edge to edge. The two pairing chambers differed in visual and tactile cues. One chamber was entirely light blue with the stainless steel floor and the second chamber was light blue with horizontal black stripes (2.5 cm wide) spaced 3.8 cm apart with a smooth plexiglass floor.
# The conditioning procedure consisted of 20 sessions carried out consecutively over 20 days. The first three sessions were habituation sessions, during which the animals were handled for 5 minutes per day and exposed to the sights and sounds of the test room. […] The amount of time spent in each chamber was recorded using an automated infrared beam electronically coupled to a timer.
# The animals were habituated as described above. […] Subsequently, the animals were then placed into the appropriate chamber for 30 minutes. This was repeated for 8 pairings over a 16 day period. On the test day, animals were placed in the CPP apparatus and allowed free access to the all of the CPP chambers and the amount of time spent in chamber was recorded.
# [7] = tested on: extracellular DA in the NACC; test: In vivo microdialysis: nicotine-induced increases in extracellular NACC DA; design: species or system rats
# Source text: All animals were used under an IACUC-approved protocol and with strict adherence to the NIH guidelines. Adult male Sprague-Dawley rats (200-300 g, Taconic Farms), housed in the animals care facility under 12:12 light/dark conditions, were placed into 6 groups (n=5-9), anesthetized and siliconized guide cannulae were stereotactically implanted into the right NACC (2.0 mm anterior and 1.0 mm lateral to bregms, and 7.0 mm ventral to the cortical surface) at least 4 days prior to study. […] Animals were placed in bowls, and probes were inserted and flushed with ACSF overnight. On the day of the study, a minimum of three samples were injected to determine baseline stability. Samples were collected for 20 min. and injected on-line (CMA/160, BAS). The average Dopamine concentration of these three stable samples was defined as control (100%), and all subsequent treatment values were transformed to a percentage of that control. […] The high performance liquid chromatography (HPLC) system consists of a BAS reverse-phase column (3.0 μC-18), a BAS LC-4C electrochemical transducer with a dual/glassy carbon electrode set at 650 mV, a computer that analyzes data on-line using a commercial software package (Chromograph Bioanalytical Systems), and a dual pen chart recorder. The mobile phase (flow rate 1.0 ml/min) consisted of 7.0% methanol, 50 mM sodium phosphate monobasic, 1.0 mM sodium octyl sulfate, and 0.1 mm EDNA, pH 4.0. […] Upon completion of the study, animals were decapitated and frozen sections were obtained for probe placement verification.
# The open circles are control animals.
# In all studies, animals were placed in the microdialysis bowls the night before the experiment and artificial cerebrospinal fluid (ACSF) was perfused through the microdialysis probes at a flow rate of 2.0 μl/min. At the end of each study, animals were sacrificed and their brains were removed and sectioned for probe placement verification.
# [8] = tested on: synaptic DA (11C-raclopride binding, striatum); test: Primate PET: 11C-raclopride mean DV ratio, GVG and nicotine; type: in vivo, baboons (Papio anubis)
# Experimental: Adult female baboons (n=16) (Papio anubis, 13-18 kg) were used for all imaging studies and carbon-11 labeled raclopride (^11C-raclopride). […] Control animals (Group 1) received two injections of ^11C-raclopride without any drug intervention in order to determine the test/retest variability of the measurement. […] Arterial blood samples were obtained throughout the study and selected plasma samples were analyzed for the presence of unchanged ^11C-raclopride. Animals were not removed from the gantry between isotope injections.
# Each primate (n=16) received two ^11C-raclopride injections. […] Test/retest primates (n=7, Group 1, Table XVI) received placebo (0.9% saline, 1 ml/kg) 30 mins prior to the second radiotracer injection in order to determine the test/retest variability of the method.
# [9] = tested on: norepinephrine (NE); test: Microdialysis Example 15: extracellular norepinephrine after nicotine; type: in vivo; conditions: nicotine 0.4 mg/kg s.c., saline pretreated animals
# Experimental: as §1
# [10] = tested on: extracellular DA levels in the NACC; conditions: cited from earlier work
# [11] = tested on: extracellular DA levels in the NACC; conditions: SCH 50911 alone; cited from earlier work
# [12] = tested on: GABAA receptor complex; conditions: in vivo; cited from earlier work
# [13] = tested on: rats; conditions: baclofen 1.25-5 mg/kg i.p. acute pretreatment; for at least four hours; cited from earlier work
# [14] = tested on: rats; conditions: microinjection of baclofen into the ventral tegmental area; cited from earlier work
# [15] = tested on: male Wistar rats; conditions: baclofen; cited from earlier work
# [16] = tested on: cocaine abuser; conditions: case report; cited from earlier work
# [17] = tested on: NAc DA; test: Microdialysis: cocaine/heroin (speedball) induced increases in NAc DA; type: in vivo, rats
# Experimental: In vivo microdialysis studies were performed using adult male Sprague-Dawley rats (Taconic Farms) as detailed previously (Morgan and Dewey, 1998). Cocaine, a dopamine reuptake inhibitor, (n=6-8) was administered (i.p.) at a dose of 20 mg/kg while heroin, an indirect dopamine releaser, (n=6-8) was administered (i.p.) at a dose of 0.5 mg/kg. In studies designed to investigate the synergistic effects of a cocaine/heroin combination (n=6-8), both drugs were administered at the identical dose used in the single drug studies. Alone cocaine produced a marked elevation in extracellular DA of approximately 380% above baseline values, 60 minutes following administration. DA returned to baseline within 120 minutes. In contrast, heroin increased NAc DA by only 70%, 60 minutes following administration, returning to baseline within 140 minutes. However, when combined, the two drugs produced an increase in NAc DA of approximately 1000%, 180 minutes following administration that had not returned to baseline values by 200 minutes after reaching peak values (FIG. 9).
# [18] = tested on: extracellular DA in the NACC; test: Microdialysis: methamphetamine-induced increases in NACC DA; type: in vivo, rats
# Source text: All animals were used under an IACUC-approved protocol and with strict adherence to the NIH guidelines. Adult male Sprague-Dawley rats (200-300 g, Taconic Farms), housed in the animals care facility under 12:12 light/dark conditions, were placed into 6 groups (n=5-9), anesthetized and siliconized guide cannulae were stereotactically implanted into the right NACC (2.0 mm anterior and 1.0 mm lateral to bregms, and 7.0 mm ventral to the cortical surface) at least 4 days prior to study. Microdialysis probes (2.0 mm, Bioanalytical Systems, BAS, West Lafayette, Ind.) were positioned within the guide cannulae and artificial cerebrospinal fluid (ACSF, 155.0 mM NA^−, 1.1 mM Ca^2−, 2.9 mM K^−, 132.76 mM Cl^−, and 0.83 mM Mg^2−) was administered through the probe using a CMA/100 microinfusion pump (BAS) at a flow rate of 2.0 μl/min. Animals were placed in bowls, and probes were inserted and flushed with ACSF overnight. On the day of the study, a minimum of three samples were injected to determine baseline stability. Samples were collected for 20 min. and injected on-line (CMA/160, BAS). The average Dopamine concentration of these three stable samples was defined as control (100%), and all subsequent treatment values were transformed to a percentage of that control. […] The high performance liquid chromatography (HPLC) system consists of a BAS reverse-phase column (3.0 μC-18), a BAS LC-4C electrochemical transducer with a dual/glassy carbon electrode set at 650 mV, a computer that analyzes data on-line using a commercial software package (Chromograph Bioanalytical Systems), and a dual pen chart recorder. The mobile phase (flow rate 1.0 ml/min) consisted of 7.0% methanol, 50 mM sodium phosphate monobasic, 1.0 mM sodium octyl sulfate, and 0.1 mm […], pH 4.0. DA eluted at 7.5 min. Upon completion of the study, animals were decapitated and frozen sections were obtained for probe placement verification.
# Methamphetamine at a dose of 1.25 mg/kg i.p. and 2.5 mg/kg i.p. was administered to the animals. It was noted that methamphetamine elevated extracellular DA concentrations in the NACC by approximately 2500% over basal levels, 100 minutes following administration of 2.5 mg/kg and approximately 1500% over basal levels following administration of 1.25 mg/kg (FIG. 6). DA returned to basal levels approximately 200 minutes following administration.
# [19] = tested on: rat; conditions: cited from earlier work
# [20] = Nicotine 0.4 mg/kg s.c./Vehicle, 4 pairings (Table XII)
# [21] = acquisition, Saline/Nicotine 0.4 mg/kg s.c., 8 pairings (Table XV)
# [22] = expression, Saline/Nicotine (0.4 mg/kg s.c.) 8 pairings, saline on test day
# [23] = expression, Saline/Nicotine (0.4 mg/kg s.c.) 8 pairings, saline on test day, listed as nicotine
# T1 sequence (Q9Z0U4 17-960 limits assumed): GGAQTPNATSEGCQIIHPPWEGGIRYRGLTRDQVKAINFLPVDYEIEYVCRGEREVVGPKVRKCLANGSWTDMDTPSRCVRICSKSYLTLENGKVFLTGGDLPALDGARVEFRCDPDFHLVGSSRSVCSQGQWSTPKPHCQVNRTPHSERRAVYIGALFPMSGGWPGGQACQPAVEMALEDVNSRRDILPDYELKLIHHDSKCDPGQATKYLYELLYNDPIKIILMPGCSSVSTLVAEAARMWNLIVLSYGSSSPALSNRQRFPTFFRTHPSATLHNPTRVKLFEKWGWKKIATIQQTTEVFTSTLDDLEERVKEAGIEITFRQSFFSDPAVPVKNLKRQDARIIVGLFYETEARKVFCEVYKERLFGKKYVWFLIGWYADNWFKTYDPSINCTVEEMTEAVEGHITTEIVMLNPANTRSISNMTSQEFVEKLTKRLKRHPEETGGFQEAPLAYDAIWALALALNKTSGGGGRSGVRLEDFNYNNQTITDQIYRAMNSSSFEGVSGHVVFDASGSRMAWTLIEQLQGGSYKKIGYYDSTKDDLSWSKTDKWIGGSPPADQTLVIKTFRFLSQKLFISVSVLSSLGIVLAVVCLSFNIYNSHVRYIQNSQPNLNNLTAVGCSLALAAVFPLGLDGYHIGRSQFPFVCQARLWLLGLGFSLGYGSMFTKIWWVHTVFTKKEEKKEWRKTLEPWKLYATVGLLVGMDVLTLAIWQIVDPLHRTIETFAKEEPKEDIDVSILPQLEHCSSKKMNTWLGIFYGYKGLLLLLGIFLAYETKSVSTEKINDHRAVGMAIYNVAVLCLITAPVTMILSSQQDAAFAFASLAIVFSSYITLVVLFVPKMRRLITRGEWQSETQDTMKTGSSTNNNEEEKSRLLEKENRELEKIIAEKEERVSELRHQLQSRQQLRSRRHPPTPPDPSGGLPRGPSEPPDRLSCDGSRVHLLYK
# T1 sequence (O88871 41-940 partner): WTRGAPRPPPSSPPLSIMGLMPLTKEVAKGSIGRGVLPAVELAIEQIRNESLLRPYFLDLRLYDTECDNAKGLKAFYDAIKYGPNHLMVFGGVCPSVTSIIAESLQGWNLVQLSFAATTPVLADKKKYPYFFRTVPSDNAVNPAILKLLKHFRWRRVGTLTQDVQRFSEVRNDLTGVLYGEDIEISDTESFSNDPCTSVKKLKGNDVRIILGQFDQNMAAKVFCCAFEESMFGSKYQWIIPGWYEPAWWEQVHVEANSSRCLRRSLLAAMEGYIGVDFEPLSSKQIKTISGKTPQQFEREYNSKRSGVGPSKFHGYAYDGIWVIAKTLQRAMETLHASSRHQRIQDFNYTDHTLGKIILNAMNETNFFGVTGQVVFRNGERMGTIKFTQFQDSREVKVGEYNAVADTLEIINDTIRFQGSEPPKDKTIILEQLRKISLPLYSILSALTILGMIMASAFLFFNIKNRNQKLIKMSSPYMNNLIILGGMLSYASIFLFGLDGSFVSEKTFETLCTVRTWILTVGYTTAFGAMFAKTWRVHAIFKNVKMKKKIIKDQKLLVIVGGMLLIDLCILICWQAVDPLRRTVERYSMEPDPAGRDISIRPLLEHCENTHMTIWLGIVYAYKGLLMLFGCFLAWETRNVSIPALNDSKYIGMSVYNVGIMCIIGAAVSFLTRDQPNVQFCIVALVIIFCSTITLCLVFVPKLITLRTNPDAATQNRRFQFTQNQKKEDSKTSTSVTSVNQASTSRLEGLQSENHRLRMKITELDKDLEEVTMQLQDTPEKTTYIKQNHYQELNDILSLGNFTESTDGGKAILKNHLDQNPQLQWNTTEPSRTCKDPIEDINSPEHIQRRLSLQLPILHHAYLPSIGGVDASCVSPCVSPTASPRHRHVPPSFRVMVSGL
smiles,measurement,setting,value
NCC(O)(CS(=O)(=O)O)c1ccc(Cl)cc1 (centres unmarked) [2-hydroxysaclofen],effect of baclofen on morphine CPP,[1],antagonized
CCO [Ethanol],elevation of extracellular DA concentrations in the NACC over basal levels,[2],approximately 200%
CN1CCC[C@H]1c1cccnc1 [Nicotine],gross locomotor activity,[3],increased gross locomotor activity
same,DA increase,[4],70±10.5%
same,5-HT increase,[5],116±11.2%
same,"Time spent in chambers, Paired",[6]; [20],9.4 ± 0.5 min
same,"Time spent in chambers, Unpaired",[6]; [20],5.6 ± 0.5 min
same,"Time spent in chambers, Paired",[6]; [21],9.6 ± 0.6^1 min
same,"Time spent in chambers, Unpaired",[6]; [21],5.4 ± 0.6 min
same,"Time spent in chambers, Paired",[6]; [22],9.6 ± 0.6 min
same,"Time spent in chambers, Unpaired",[6]; [22],5.4 ± 0.6 min
same,"Time spent in chambers, Paired",[6]; [23],9.6 ± 0.6 min
same,"Time spent in chambers, Unpaired",[6]; [23],5.4 ± 0.6 min
same,increase of NACC DA levels (rank order),[7]; nicotine,90%
same,time for DA to return to basal levels,"[7]; nicotine 0.4 mg/kg s.c., Group 1",approximately 160 minutes
same,"DA levels, % of basal levels","[7]; nicotine 0.4 mg/kg s.c., Group 1 (naive)",approximately 200%
same,increase in extracellular DA concentrations in the NACC,"[7]; nicotine 0.4 mg/kg s.c., Group 1 (naive), 80 minutes following administration",approximately 100%
same,reduction of the mean DV ratio,[8]; Group 3: nicotine alone,12%
same,% Change in Mean DV Ratio,"[8]; Group 3: nicotine alone 0.3 mg total, 30 minutes prior to second 11C-raclopride injection",−12.3 ± 2.6%
same,NE increase,[9],176±26%
same,increase in extracellular DA levels in the NACC,[10]; nicotine 0.6 mg/kg s.c.,220%
same,increase in extracellular DA levels in the NACC,[10]; nicotine 0.8 mg/kg s.c.,179%
CC1(C)CO[C@@H](CC(=O)O)CN1 [SCH 50911],DA levels when given alone,[11],does not significantly alter DA levels
Cc1nnc2n1-c1ccc(Cl)cc1C(c1ccccc1)=NC2 [alprazolam],rate of cocaine self-administration,[12],decreased the rate of cocaine self-administration
NCC(CC(=O)O)c1ccc(Cl)cc1 (centres unmarked) [baclofen],self-administration of cocaine,[13],suppress self-administration of cocaine
same,rate-current intensity curve of lateral hypothalamus stimulation,[14],rightward shift of the rate-current intensity curve
same,break points for intravenous administration of cocaine,[15],dose-dependent decrease
same,rate of drug intake,[15],did not affect the rate of drug intake
NCC1(CC(=O)O)CCCCC1 [gabapentin],cocaine withdrawal and craving,[16],attenuated cocaine withdrawal and craving
CC(=O)Oc1ccc2c3c1O[C@H]1[C@@H](OC(C)=O)C=C[C@H]4[C@@H](C2)N(C)CC[C@@]341 [heroin],time for DA to return to baseline,[17]; cocaine 20 mg/kg i.p. or heroin 0.5 mg/kg i.p. alone,≤ 140 min
same,increase in NAc DA,"[17]; heroin alone 0.5 mg/kg i.p., 60 minutes following administration",70%
CN[C@@H](C)Cc1ccccc1 [methamphetamine],time for DA to return to basal levels,[18]; methamphetamine,approximately 200 minutes
same,elevation of extracellular DA concentrations in the NACC over basal levels,[18]; methamphetamine 1.25 mg/kg i.p.,approximately 1500%
NC(=O)CCC/N=C(\c1ccc(Cl)cc1)c1cc(F)ccc1O [progabide],"conditioned place preference or aversion, alone",[19]; progabide alone,does not produce conditioned place preference or aversion
same,CPP response to […] i.p. of amphetamine,"[19]; progabide pretreatment, present for 35 minutes",did not alter the CPP response
